Test results reported in patent publication US20240059688A1, “CONOLIDINE ANALOGUES AS SELECTIVE ACKR3 MODULATORS FOR THE TREATMENT OF CANCER” (Luxembourg Institute of Health (LIH), priority 2020, published 2024).

How the values were obtained:
Format in all cases: cell-based
MOR = MOR (Homo sapiens, UniProt P35372); assay: MOR calcium mobilization agonist/antagonist screen (CHO-RD-HGA16 cells); parameters: host or cells: CHO-RD-HGA16; conditions: single concentration; for Emax: CHO-RD-HGA16, agonist screen, control agonist DAMGO; for MOR Calcium % DAMGO Inhibition: antagonist screen, vs EC60 of DAMGO
Protocol: (§1) Compounds were evaluated for kappa (KOR), mu (MOR), and delta (DOR) opioid receptor agonist and antagonist activity in three individual cell lines overexpressing Gαq16 (CHO-RD-HGA16, Molecular Devices) and the human kappa, mu, and delta opioid receptors, respectively. The day before the assay, cells were plated into 96-well black-walled assay plates at 30,000 cells/well in Ham's F12 supplemented with 10% fetal bovine serum, and 100 units of penicillin and streptomycin. The cells were incubated overnight at 37° C., 5% CO2. Prior to the assay, Calcium 5 dye (Molecular Devices) was reconstituted according to the manufacturer's instructions. The reconstituted dye was diluted 1:40 in pre-warmed (37° C.) assay buffer (1×HBSS, 20 mM HEPES, 2.5 mM probenecid, pH 7.4 at 37° C.). Growth medium was removed and the cells were gently washed with 100 μL of pre-warmed (37° C.) assay buffer. The cells were incubated for 45 minutes at 37° C., 5% CO2 in 200 μL of the diluted Calcium 5 dye. For the agonist screen, a single concentration of each test compound and receptor-specific controls (U69,593, DAMGO, and DPDPE for KOR, MOR, and DOR, respectively) were prepared at 10× the desired final concentration in 1% DMSO/assay buffer, aliquoted into a 96-well polystyrene plate, and warmed to 37° C. After the dye-loading incubation period, pretreatment solution was added to each well (25 μL of 9% DMSO/assay buffer) and, after 15 min, the plate was read with a FlexStation II (Molecular Devices). Calcium-mediated changes in fluorescence were monitored every 1.52 seconds over a 60 second time period, with the FlexStation II adding 50 μL of test compounds at the 19 second time point (excitation at 485 nm, detection at 525 nm). Peak kinetic reduction (SoftMax, Molecular Devices) relative fluorescence units (RFU) were used to calculate % control agonist Emax with the equation % Emax=(test compound RFU/control agonist RFU)×100. For the antagonist screens, the same procedure was followed except that the pretreatment solution consisted of the test compounds (prepared at […] the desired final concentration in 9% DMSO/assay buffer) and the FlexStation added the EC60 concentration (prepared at 10× the desired final concentration in 1% DMSO/assay buffer) of each respective control agonist. Peak RFU were used to calculate % control EC60 inhibition with the equation % inhibition=((EC60 RFU−test compound RFU)/EC60 RFU)×100. When IC50 determinations were made, the same antagonist screen procedure was followed except that cells were pretreated with 8-pt concentration-response curves of the test compounds. Peak RFU were plotted against the log of compound concentration using non-linear regression analysis to generate IC50 values (GraphPad Prism). Each test sample was analyzed in duplicate in two independent experiments.

human CXCR4 = molecular target: T1, human CXCR4 (Homo sapiens, UniProt P61073); assay: CXCR4 β-arrestin recruitment assay (PathHunter); conditions: human CXCR4-C2Cl2 cells, relative to CXCL-12
T1 construct: host or cells: C2C12
Protocol: (§2) Compounds were evaluated for agonist activity using a β-arrestin recruitment assay based on β-galactosidase complementation (PathHunter, DiscoverX). Stable human ACKR3-β-arrestin-2-CHO cells (DiscoverX) were plated into 96-well white-walled assay plates at 15,000 cells/well in Cell Plating Reagent 2 (DiscoveRx) and incubated at 37° C., 5% CO2 overnight. The next day, test compounds were prepared at 10× concentration in DPBS/1% DMSO and 10 μL was added to the cells. CXCL-12 was included as a positive agonist control. Following a 1.5 hr incubation at 37° C., 55 μL of detection reagent (prepared according to the manufacturer's specifications) was added to each well. The plate was incubated at room temperature for 1 hr, after which luminescence was measured at 1 sec/well using an EnSpire multimode plate reader (PerkinElmer). Relative luminescence units (RLU) were plotted against the log of compound concentration and data were fit to a three-parameter logistic curve to generate EC50 values (GraphPad Prism). EC50 and % Emax values are reported as means±SEM and are the result of at least two independent experiments performed in duplicate. The CXCR4 assay was run similarly except that human CXCR4-C2Cl2 cells (DiscoverX) were plated at 20,000 cells/well in Cell Plating Reagent 9. The next day, the media was removed and cells were incubated with Cell Plating Reagent 4 for 3 hrs, after which the assay was conducted as described above.

CaV 3.2 = molecular target: T2, CaV 3.2 (Homo sapiens, UniProt O95180); assay: CaV 3.2 calcium assay in stable human CaV3.2-HEK293 cells; conditions: control agonist calcium chloride
T2 construct: expressed in transfected cells
Protocol: as §1
Compounds were evaluated for activity at CaV 3.2 using stable human CaV3.2-HEK293 cells and the control agonist calcium chloride. The day before the assay, cells were plated into 96-well black-walled assay plates coated with poly-D-lysine in DMEM-F12 supplemented with 10% fetal bovine serum, 100 units penicillin/streptomycin, and 500 μM sodium pyruvate, and incubated at 37° C., 5% CO2 overnight. Prior to the assay, Calcium 5 dye (Molecular Devices) was reconstituted according to the manufacturer instructions. The reconstituted dye was diluted 1:10 in pre-warmed (37° C.) assay buffer (1×HBSS, […], […], pH 7.4 at 37° C.). The cells were incubated for 45 minutes at 37° C., 5% CO2 in 200 μL of the diluted Calcium 5 dye. Compounds were prepared as described above and the plate was read with a FLIPR Tetra (Molecular Devices). Calcium-mediated changes in fluorescence were monitored every 1 second over a 60 second time period, with the Tetra adding 25 μL of appropriate compound at the 10 second time point (excitation at 470-495 nm, detection at 515-575 nm). […]

DOR = DOR (Homo sapiens, UniProt P41143); assay: DOR calcium mobilization agonist/antagonist screen (CHO-RD-HGA16 cells); parameters: host or cells: CHO-RD-HGA16; conditions: single concentration; for Emax: CHO-RD-HGA16, agonist screen, control agonist DPDPE; for DOR Calcium % DPDPE Inhibition: antagonist screen, vs EC60 of DPDPE
Protocol: as §1

ACKR3 = ACKR3 (Homo sapiens, UniProt P25106); assay: ACKR3 β-arrestin recruitment assay (PathHunter, β-galactosidase complementation); conditions: for EC50: stable human ACKR3-β-arrestin-2-CHO cells, mean ± SEM, at least two independent experiments in duplicate; for Emax: read-out: ACKR3 β-arrestin % CXCL12 Emax ± SEM
Protocol: as §2

KOR = KOR (Homo sapiens, UniProt P41145); assay: KOR calcium mobilization agonist/antagonist screen (CHO-RD-HGA16 cells); parameters: host or cells: CHO-RD-HGA16; conditions: single concentration; for Emax: CHO-RD-HGA16, agonist screen, control agonist U69,593; for KOR Calcium % U69, 593 Inhibition: antagonist screen, vs EC60 of U69,593
Protocol: as §1

T1 sequence (P61073 whole entry): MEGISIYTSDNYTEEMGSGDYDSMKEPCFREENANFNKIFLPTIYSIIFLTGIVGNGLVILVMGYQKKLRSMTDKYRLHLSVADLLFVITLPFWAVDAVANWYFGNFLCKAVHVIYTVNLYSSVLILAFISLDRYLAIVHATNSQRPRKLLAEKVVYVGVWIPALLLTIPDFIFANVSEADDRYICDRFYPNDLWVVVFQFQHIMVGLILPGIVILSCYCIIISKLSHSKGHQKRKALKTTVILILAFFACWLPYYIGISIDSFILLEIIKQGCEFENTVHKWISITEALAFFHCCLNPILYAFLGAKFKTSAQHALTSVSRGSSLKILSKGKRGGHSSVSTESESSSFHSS
T2 sequence (O95180 whole entry): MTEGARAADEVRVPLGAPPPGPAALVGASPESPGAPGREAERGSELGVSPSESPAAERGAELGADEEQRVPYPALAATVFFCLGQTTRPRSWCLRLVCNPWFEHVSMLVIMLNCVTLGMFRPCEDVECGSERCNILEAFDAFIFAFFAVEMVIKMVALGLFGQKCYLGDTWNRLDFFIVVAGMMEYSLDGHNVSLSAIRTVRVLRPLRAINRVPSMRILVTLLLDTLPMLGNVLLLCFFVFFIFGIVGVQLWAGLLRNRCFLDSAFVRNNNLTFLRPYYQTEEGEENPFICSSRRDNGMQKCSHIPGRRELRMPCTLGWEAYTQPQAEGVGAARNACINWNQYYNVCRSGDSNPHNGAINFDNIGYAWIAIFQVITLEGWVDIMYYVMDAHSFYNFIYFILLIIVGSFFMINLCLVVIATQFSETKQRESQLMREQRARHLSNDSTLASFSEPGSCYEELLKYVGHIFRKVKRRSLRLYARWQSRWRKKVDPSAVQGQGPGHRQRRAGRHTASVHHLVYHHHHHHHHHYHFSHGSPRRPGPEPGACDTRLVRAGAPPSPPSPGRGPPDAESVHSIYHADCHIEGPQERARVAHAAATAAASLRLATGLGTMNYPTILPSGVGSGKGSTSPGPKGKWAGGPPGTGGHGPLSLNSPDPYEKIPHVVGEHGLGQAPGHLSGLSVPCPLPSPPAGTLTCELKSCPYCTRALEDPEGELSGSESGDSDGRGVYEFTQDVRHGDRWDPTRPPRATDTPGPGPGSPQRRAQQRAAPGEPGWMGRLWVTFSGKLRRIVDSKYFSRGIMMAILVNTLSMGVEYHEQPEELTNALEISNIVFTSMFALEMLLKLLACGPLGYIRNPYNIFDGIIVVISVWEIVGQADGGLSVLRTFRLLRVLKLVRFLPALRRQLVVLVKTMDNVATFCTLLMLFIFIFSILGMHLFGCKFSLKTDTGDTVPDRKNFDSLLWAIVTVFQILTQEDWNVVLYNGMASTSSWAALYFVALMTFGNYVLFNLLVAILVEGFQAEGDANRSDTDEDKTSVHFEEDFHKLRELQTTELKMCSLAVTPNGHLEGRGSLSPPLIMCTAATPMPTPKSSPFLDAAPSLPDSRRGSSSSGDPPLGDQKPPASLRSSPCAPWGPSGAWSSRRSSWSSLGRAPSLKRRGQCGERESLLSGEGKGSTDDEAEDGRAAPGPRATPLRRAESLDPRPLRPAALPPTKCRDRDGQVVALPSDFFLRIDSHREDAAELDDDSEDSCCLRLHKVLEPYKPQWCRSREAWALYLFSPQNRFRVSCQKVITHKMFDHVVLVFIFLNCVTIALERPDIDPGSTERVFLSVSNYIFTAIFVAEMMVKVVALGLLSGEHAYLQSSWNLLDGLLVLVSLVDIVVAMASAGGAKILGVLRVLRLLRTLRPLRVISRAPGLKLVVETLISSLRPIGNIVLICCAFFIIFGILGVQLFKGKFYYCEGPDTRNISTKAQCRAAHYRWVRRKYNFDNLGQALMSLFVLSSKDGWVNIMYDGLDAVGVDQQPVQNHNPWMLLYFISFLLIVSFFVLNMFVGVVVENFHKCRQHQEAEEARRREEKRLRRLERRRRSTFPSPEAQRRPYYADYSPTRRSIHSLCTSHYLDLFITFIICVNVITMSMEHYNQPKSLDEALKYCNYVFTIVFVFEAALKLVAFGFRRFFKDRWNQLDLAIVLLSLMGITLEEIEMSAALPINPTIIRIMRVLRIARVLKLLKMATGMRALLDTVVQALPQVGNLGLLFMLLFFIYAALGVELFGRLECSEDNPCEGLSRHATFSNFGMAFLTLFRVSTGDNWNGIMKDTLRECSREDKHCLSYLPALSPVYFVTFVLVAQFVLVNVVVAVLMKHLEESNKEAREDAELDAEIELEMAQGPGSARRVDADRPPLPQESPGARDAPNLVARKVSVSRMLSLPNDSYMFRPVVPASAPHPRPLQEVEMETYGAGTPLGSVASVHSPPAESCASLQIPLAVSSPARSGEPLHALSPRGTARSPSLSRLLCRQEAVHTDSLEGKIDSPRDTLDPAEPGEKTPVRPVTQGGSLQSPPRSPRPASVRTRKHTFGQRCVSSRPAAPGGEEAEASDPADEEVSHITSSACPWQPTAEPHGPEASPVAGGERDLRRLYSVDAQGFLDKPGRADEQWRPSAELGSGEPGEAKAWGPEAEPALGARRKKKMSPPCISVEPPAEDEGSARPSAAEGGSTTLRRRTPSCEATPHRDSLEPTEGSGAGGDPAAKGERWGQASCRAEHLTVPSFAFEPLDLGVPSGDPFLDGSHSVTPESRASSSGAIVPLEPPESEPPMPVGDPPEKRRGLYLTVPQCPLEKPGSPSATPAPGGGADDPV
Sequence of ACKR3 (P25106 whole entry): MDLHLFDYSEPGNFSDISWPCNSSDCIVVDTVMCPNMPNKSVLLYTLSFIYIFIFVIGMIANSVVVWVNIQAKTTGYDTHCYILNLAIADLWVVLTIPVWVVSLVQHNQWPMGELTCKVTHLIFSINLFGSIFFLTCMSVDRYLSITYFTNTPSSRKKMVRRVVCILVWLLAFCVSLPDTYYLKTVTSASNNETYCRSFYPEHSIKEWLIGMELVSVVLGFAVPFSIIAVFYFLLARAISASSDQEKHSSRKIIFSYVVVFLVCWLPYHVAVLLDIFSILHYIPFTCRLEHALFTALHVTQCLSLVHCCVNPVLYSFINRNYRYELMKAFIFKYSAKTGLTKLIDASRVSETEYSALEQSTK
Sequence of MOR (P35372 whole entry): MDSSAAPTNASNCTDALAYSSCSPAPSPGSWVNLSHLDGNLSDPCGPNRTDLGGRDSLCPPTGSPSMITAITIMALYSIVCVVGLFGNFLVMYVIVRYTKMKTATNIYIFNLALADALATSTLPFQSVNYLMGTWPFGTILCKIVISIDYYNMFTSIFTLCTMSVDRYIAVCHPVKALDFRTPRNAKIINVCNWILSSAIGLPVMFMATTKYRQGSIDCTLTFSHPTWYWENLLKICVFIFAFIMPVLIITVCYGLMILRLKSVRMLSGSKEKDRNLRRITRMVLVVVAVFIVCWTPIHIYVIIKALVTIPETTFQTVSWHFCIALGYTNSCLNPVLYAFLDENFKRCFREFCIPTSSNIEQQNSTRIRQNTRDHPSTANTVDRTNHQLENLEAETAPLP
Sequence of DOR (P41143 whole entry): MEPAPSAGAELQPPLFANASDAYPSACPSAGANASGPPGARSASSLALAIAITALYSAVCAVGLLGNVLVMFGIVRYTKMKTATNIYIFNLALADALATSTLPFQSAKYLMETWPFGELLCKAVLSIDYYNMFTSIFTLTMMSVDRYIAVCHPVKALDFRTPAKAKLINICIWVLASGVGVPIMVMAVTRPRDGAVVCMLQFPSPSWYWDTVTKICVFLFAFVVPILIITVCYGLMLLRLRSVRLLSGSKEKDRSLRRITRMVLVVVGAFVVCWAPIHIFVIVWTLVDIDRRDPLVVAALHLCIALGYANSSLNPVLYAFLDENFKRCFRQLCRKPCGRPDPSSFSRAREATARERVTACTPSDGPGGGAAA
Sequence of KOR (P41145 whole entry): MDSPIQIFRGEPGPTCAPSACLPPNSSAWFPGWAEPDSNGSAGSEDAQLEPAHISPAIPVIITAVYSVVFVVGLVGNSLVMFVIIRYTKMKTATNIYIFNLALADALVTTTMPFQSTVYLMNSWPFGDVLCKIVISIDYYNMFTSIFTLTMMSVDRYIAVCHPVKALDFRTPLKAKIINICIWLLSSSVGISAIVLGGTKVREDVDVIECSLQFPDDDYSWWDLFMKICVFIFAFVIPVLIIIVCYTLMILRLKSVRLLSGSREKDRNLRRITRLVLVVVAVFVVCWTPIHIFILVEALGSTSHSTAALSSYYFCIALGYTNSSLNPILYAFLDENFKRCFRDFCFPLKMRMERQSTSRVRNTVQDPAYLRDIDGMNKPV

Structure (SMILES): C/C=C1/CNCC[C@H]1C(=O)c1cc2ccccc2[nH]1 [WW-8, (3E,4R)-(3-ethylidenepiperidin-4-yl)(1H-indol-2-yl)methanone]
- Emax (MOR): 1%
- MOR Calcium % DAMGO Inhibition (MOR): 3%
- CXCR4 β-arrestin % CXCL-12Emax (n = 2) (human CXCR4): 4%
- CaV 3.2 % CaCl2 Inhibition (CaV 3.2): −14%
- Emax (DOR): 5%
- DOR Calcium % DPDPE Inhibition (DOR): 3%
- EC50 (ACKR3): > 10 µM
- Emax (KOR): 3%
- KOR Calcium % U69, 593 Inhibition (KOR): 4%

Structure (SMILES): C/C=C1/CN2CC[C@H]1C(=O)c1[nH]c3ccc(OC)cc3c1C2 [WW-5, (4E,5R)-10-methoxy-4-ethylidene-1,4,5,7-tetrahydro-2,5-ethanoazocino[4,3-b]indol-6(3H)-one]
- Emax (MOR): 1%
- MOR Calcium % DAMGO Inhibition (MOR): 13%
- CXCR4 β-arrestin % CXCL-12Emax (n = 2) (human CXCR4): 7%
- CaV 3.2 % CaCl2 Inhibition (CaV 3.2): 9%
- Emax (DOR): 2%
- DOR Calcium % DPDPE Inhibition (DOR): 22%
- Emax (ACKR3): 171 ± 6%
- EC50 (ACKR3): 8.15 ± 0.59 µM
- Emax (KOR): 20%
- KOR Calcium % U69, 593 Inhibition (KOR): 17%

Structure (SMILES): C/C=C1/CN2CC[C@H]1C(=O)c1[nH]c3ccc(F)cc3c1C2 [WW-4, (4E,5R)-10-fluoro-4-ethylidene-1,4,5,7-tetrahydro-2,5-ethanoazocino[4,3-b]indol-6(3H)-one]
- Emax (MOR): 0%
- MOR Calcium % DAMGO Inhibition (MOR): 0%
- CXCR4 β-arrestin % CXCL-12Emax (n = 2) (human CXCR4): 2%
- CaV 3.2 % CaCl2 Inhibition (CaV 3.2): 6%
- Emax (DOR): 1%
- DOR Calcium % DPDPE Inhibition (DOR): 9%
- EC50 (ACKR3): > 10 µM
- Emax (KOR): 1%
- KOR Calcium % U69, 593 Inhibition (KOR): 14%

Structure (SMILES): C/C=C1/CN(CC(C)C)CC[C@H]1C(=O)c1cc2ccccc2[nH]1 [WW-10, [(3E,4R)-3-ethylidene-1-(2-methylpropyl)piperidin-4-yl](1H-indol-2-yl)methanone]
- Emax (MOR): 1%
- MOR Calcium % DAMGO Inhibition (MOR): 0%
- CXCR4 β-arrestin % CXCL-12Emax (n = 2) (human CXCR4): 2%
- CaV 3.2 % CaCl2 Inhibition (CaV 3.2): −3%
- Emax (DOR): 4%
- DOR Calcium % DPDPE Inhibition (DOR): 5%
- EC50 (ACKR3): > 10 µM
- Emax (KOR): 7%
- KOR Calcium % U69, 593 Inhibition (KOR): 8%

Structure (SMILES): O=C(c1cc2ccccc2[nH]1)C1CCN(Cc2ccccc2)CC1 [WW-18, (1-Benzylpiperidin-4-yl)(1H-indol-2-yl)methanone]
- Emax (MOR): 0%
- MOR Calcium % DAMGO Inhibition (MOR): 2%
- CXCR4 β-arrestin % CXCL-12Emax (n = 2) (human CXCR4): 8%
- CaV 3.2 % CaCl2 Inhibition (CaV 3.2): −2%
- Emax (DOR): 0%
- DOR Calcium % DPDPE Inhibition (DOR): 6%
- EC50 (ACKR3): > 10 µM
- Emax (KOR): 0%
- KOR Calcium % U69, 593 Inhibition (KOR): 8%

Structure (SMILES): CCOC(=O)c1[nH]c2ccccc2c1CN1CCC(C(=O)OC)CC1 [WW-6, ethyl 3-{[4-(methoxycarbonyl)piperidin-1-yl]methyl}-1H-indole-2-carboxylate]
- Emax (MOR): 0%
- MOR Calcium % DAMGO Inhibition (MOR): 11%
- CXCR4 β-arrestin % CXCL-12Emax (n = 2) (human CXCR4): 7%
- CaV 3.2 % CaCl2 Inhibition (CaV 3.2): 19%
- Emax (DOR): 0%
- DOR Calcium % DPDPE Inhibition (DOR): 1%
- EC50 (ACKR3): > 10 µM
- Emax (KOR): 0%
- KOR Calcium % U69, 593 Inhibition (KOR): 22%

Structure (SMILES): C/C=C1/CN2CC[C@H]1C(=O)c1[nH]c3ccc(Cl)cc3c1C2 [WW-2, (4E,5R)-10-chloro-4-ethylidene-1,4,5,7-tetrahydro-2,5-ethanoazocino[4,3-b]indol-6(3H)-one]
- Emax (MOR): 0%
- MOR Calcium % DAMGO Inhibition (MOR): 5%
- CXCR4 β-arrestin % CXCL-12Emax (n = 2) (human CXCR4): 4%
- CaV 3.2 % CaCl2 Inhibition (CaV 3.2): 5%
- Emax (DOR): 0%
- DOR Calcium % DPDPE Inhibition (DOR): 18%
- EC50 (ACKR3): > 10 µM
- Emax (KOR): 1%
- KOR Calcium % U69, 593 Inhibition (KOR): 22%

Structure (SMILES): C/C=C1/CN(CCC)CC[C@H]1C(=O)c1cc2ccccc2[nH]1 [WW-14, [(3E,4R)-3-ethylidene-1-propylpiperidin-4-yl](1H-indol-2-yl)methanone]
- Emax (MOR): 1%
- MOR Calcium % DAMGO Inhibition (MOR): 1%
- CXCR4 β-arrestin % CXCL-12Emax (n = 2) (human CXCR4): 8%
- CaV 3.2 % CaCl2 Inhibition (CaV 3.2): 5%
- Emax (DOR): 5%
- DOR Calcium % DPDPE Inhibition (DOR): 0%
- Emax (ACKR3): 84 ± 6%
- EC50 (ACKR3): 3.28 ± 0.39 µM
- Emax (KOR): 3%
- KOR Calcium % U69, 593 Inhibition (KOR): 6%

Structure (SMILES): CCOC(=O)C1CCN(Cc2c[nH]c3ccccc23)CC1 [WW-17, ethyl 1-(1H-indol-3-ylmethyl)piperidine-4-carboxylate]
- Emax (MOR): 1%
- MOR Calcium % DAMGO Inhibition (MOR): 4%
- CXCR4 β-arrestin % CXCL-12Emax (n = 2) (human CXCR4): 7%
- CaV 3.2 % CaCl2 Inhibition (CaV 3.2): −11%
- Emax (DOR): 0%
- DOR Calcium % DPDPE Inhibition (DOR): 11%
- Emax (ACKR3): 146 ± 6%
- EC50 (ACKR3): 4.81 ± 0.45 µM
- Emax (KOR): 1%
- KOR Calcium % U69, 593 Inhibition (KOR): 5%

Structure (SMILES): CCC1CN2CC[C@H]1C(=O)c1[nH]c3ccccc3c1C2 (stereo partly drawn) [WW-15, (5R)-4-ethyl-1,4,5,7-tetrahydro-2,5-ethanoazocino[4,3-b]indol-6(3H)-one]
- Emax (MOR): 0%
- MOR Calcium % DAMGO Inhibition (MOR): 7%
- CXCR4 β-arrestin % CXCL-12Emax (n = 2) (human CXCR4): 7%
- CaV 3.2 % CaCl2 Inhibition (CaV 3.2): 2%
- Emax (DOR): 0%
- DOR Calcium % DPDPE Inhibition (DOR): 3%
- EC50 (ACKR3): > 10 µM
- Emax (KOR): 20%
- KOR Calcium % U69, 593 Inhibition (KOR): 18%

Structure (SMILES): C/C=C1/CN2CC[C@H]1C(=O)c1[nH]c3cc(F)ccc3c1C2 [WW-3, (4E,5R)-4-ethylidene-9-fluoro-1,4,5,7-tetrahydro-2,5-ethanoazocino[4,3-b]indol-6(3H)-one]
- Emax (MOR): 1%
- MOR Calcium % DAMGO Inhibition (MOR): 1%
- CXCR4 β-arrestin % CXCL-12Emax (n = 2) (human CXCR4): 1%
- CaV 3.2 % CaCl2 Inhibition (CaV 3.2): 1%
- Emax (DOR): 0%
- DOR Calcium % DPDPE Inhibition (DOR): 9%
- EC50 (ACKR3): > 10 µM
- Emax (KOR): 1%
- KOR Calcium % U69, 593 Inhibition (KOR): 14%
